No end group written: not given here.
Key:
hippocampal neurons = assay: NMDA- or STS-induced apoptosis in cultured hippocampal neurons (Cell Death ELISA, 11-dUTP, PI staining); assay type: cell-based, rat; details: 100 μM NMDA + 10 μM glycine 1 h, read at 24 h; APV 50 μM; sucrose 0.4 M; myr-Dyn 100 μM; R2-CT 1 μM with Pep-1
Procedure: (§1) Hippocampi were rapidly removed from embryonic E l 8 Sprague Dawley rats and pooled prior to trituration. Hippocampal cell suspensions were plated onto poly-Dlysine coated culture dishes or glass coverslips and grown in Neurobasal™ media 10 (Invitrogen) for 14 days in vitro (DIV). The media from mature 14 DIV neurons was removed and replaced with 100 μM NMDA plus 10 μM glycine for 1 h at 37° C. prior to restoring neurons to the defined growth media. Twenty four hours after NMDA/glycine application, neurons were processed using cell death assays. NMDA-induced [Ca^2+]i responses were evoked and measured using methods described previously^26.
Apoptosis quantification: NMDA-induced apoptosis was quantified either using a Cell Death Detection Elisa Plus Kit (Roche Applied Sciences), which is based on the in vitro determination of cytoplasmic histone-associated DNA fragments, or using TdT mediated addition of biotinylated 11-dUTP to the free 3′-OH ends of DNA. Absorbance readings for both assays were carried out using a microplate reader.
Propidium Iodide (PI) staining of nuclei: After the induction of apoptosis, cells were fixed with 4% parafonnaldehyde/4% sucrose for 10 min followed by ice cold acetone for 1 min, and then stained with […] PI in Dulbecco's PBS for 30 min. Stained coverslips were mounted onto glass slides and viewed with a Leica fluorescence microscope to identify condensed nuclei. Cells with condensed nuclei were counted as apoptotic and the percentage of apoptotic cells to the total number of cells was calculated to give a semi-quantitative analysis, expressed as percentage of apoptosis.
A short peptide (YKEGYNVYGIE (SEQ ID NO. 2)) corresponding to amino acid residues from 869 to 879 of the C-terminus of GluR2 (R2-CT) was synthesized and incubated with a carrier protein (Pep-1)23 at a ratio of 1:20 in Dulbecco's modified Eagle's medium
(DMEM, Gibco) at 37° C. in a humidified atmosphere containing 5% CO2 for 30 min to allow the formation of R2-CT/Pep-1 complex. Hippocampal neurons (DW 12-14) were then overlaid with the preformed complex to reach a final R2-CT concentration of 1 μM and further incubated for 1 h before experiments commenced. Receptor Trafficking Assays

Sprague-Dawley rats = assay: Transient focal ischemia model (MCA occlusion), TUNEL staining and neurological exam; assay type: in vivo, rat; details: 10 min prior to MCA occlusion; 3 nmoles/g
Procedure: The procedure was performed essentially as described previously (70). Briefly, adult male Sprague-Dawley rats between 280 and 320 g (20 h fasted weight) were anesthetized with an inhaled mixture of 4% isofluorane, in 30% oxygen balanced nitrous oxide, and maintained on 1.5% isofluorane. Bronchial secretions were minimized by administering 0.5 mg/kg of atropine intraperitoneally. […] The experimenter was blinded to the identity of the treatment groups for all surgeries and down-stream experiments. Under a dissection microscope, the common carotid artery (CCA), external carotid artery (ECA), and internal carotid artery (ICA) were exposed and dissected. […] Rectal temperature, and blood pressure measured with a tail cuff were measured before treatment, 15 min post injection, 50 min post injection, and 15 min post MCA occlusion. The plasma pH, O2, and CO2 were measured with a Rapidlab™ 348 blood gas analyzer (Bayer Diagnostics) in some animals to ensure that the gas flow rates used were appropriate and yielded reproducible blood gases. […]
At day 1 post MCAo rats were anesthetized with 1.5 mL of 25% urethane and were perfused with 100 mL of 0.9% saline followed by 120 mLs of 4% paraformaldehyde in PBS. […] The slices were scored for number of cells that stained positive for TMR-TUNEL per field of view at 10× magnification. […]

rats = details: IV 60 min prior to test session; versus saline
Procedure: A. Rats maintained on a restricted feeding schedule were trained to lever-press for food pellets (45 mg) on a fixed-ratio 2 (FR2) schedule during 2-hour test sessions. Rats received IV injections of saline, GluR2-3A, or GluR2-3Y, in a counterbalanced order, 60 min prior to the test session. […] B. Rats were first trained to self-administer d-amphetamine (0.2 mg/infusion) via a jugular catheter on an FR2 schedule of reinforcement. Once responding in the 3 hour test sessions had stabilized, the rats were then trained on a Progressive Ratio Schedule in which successively more responses were required to obtain each successive reinforcement. […] Once stable Break point values were established, rats received IV injections of saline, GluR2-3A, or GluR2-3Y, in a counterbalanced order, 60 min prior to the test session.

pp60 c-Src = pp60 c-Src (Homo sapiens, UniProt P12931); assay: In vitro kinase assay with active recombinant Src; assay type: biochemical; details: GST fusion protein as substrate
From the text: FIGS. 7 A-D. Insulin increases phosphorylation of tyrosine residues within the GluR2 carboxyl terminal (CT) region. A. In vitro tyrosine phosphorylation of the GluR2 CT. GST fusion proteins of the GluR1 CT (GST-GluR1CT), the GluR2 CT (GST-GluR2CT), residues 869-876 (YKEGYNVYG (SEQ ID NO. 4)) of the GluR2 CT (GST-GluR23Y), which contains a cluster of three tyrosine residues (Y869, Y873, and Y876) and the same amino acid stretch of the GluR2 CT with its tyrosine residues replaced by alanines (GST-GluR23A), along with the GST back bone (GST) as control, were incubated in the absence (−) or presence (+) of active recombinant pp60 c-Src. Phosphorylation products were immunoblotted using an anti-phosphotyrosine antibody (top panel). […] B. Expression levels of HA-GluR2 and HA-GluR23Y-3A (where tyrosines 869, 873 and 876 were mutated to alanines) 48 h after transient transfection into HEK293 cells were determined by a cell ELISA assay using permeabilized cells. C. HEK293 cells transiently transfected with HA-GluR1, HA-GluR2 or HA-GluR23Y-3A, along with empty vector (mock transfection) as control. Forty-eight hours later, the cells were treated with or without 0.5 μM insulin for 10 min. The lysates were then subjected to immunoprecipitation with an anti-HA antibody under denaturing conditions and immunoblotting with an anti-phosphotyrosine antibody (Top blot; IB: PY). […]

[1] = tested on: CA1 neurons in hippocampal slices; assay: Insulin-induced depression of AMPA receptor-mediated EPSCs, whole-cell recording of CA1 neurons; assay type: cell-based, rat; details: 100 μg/ml in recording pipette; insulin 0.5 μM in bath
Procedure: GST-GluR23Y and GST-GluR23A were constructed by subcloning corresponding PCR fragments into pGEX 4T-1 vectors. GST fusion proteins were expressed in DH5α E. coli and purified from bacterial lysates according to the manufacturer's protocol (Pharmacia). Products were dialyzed in PBS and concentrated using Microcon-10 columns (Amicon) for intracellular application during whole-cell recordings.
Hippocampal slices (400 μm thickness) were prepared from Sprague-Dawley rats aged 16-26 postnatal days and perfused at room temperature with artificial cerebrospinal fluid containing (mM): 126 NaCl, 26 NaHCO3, 10 glucose, 3 KCl, 1.2 KH2PO4, 1 MgCl2, and 1 CaCl2, saturated with 95% O2/5% CO2^14. The recording pipettes (4-5 MO) were filled with solution containing (mM): 135 CsCl, 10 HEPES, 5 QX-314, 4 Mg-ATP, 2 MgCl2, 0.5 EGTA, 0.2 GTP and 0.1 CaCl2, pH 7.4, 310 mOsm. Whole-cell recording of CA1 neurons and the induction of LFS-LTD were performed as previously described.^14 […]

Akt = Akt phosphorylation at serine 473 (Western blot); assay type: cell-based, rat
Procedure: Immunoprecipitation and Western blotting were carried out essentially as previously reported.^14 Proteins from cerebral cortex, hippocampal slices, cultured hippocampal neurons or transfected HEK293 cells were solubilized in RIPA buffer containing either 1% SDS (plus 5 min boiling; denaturing conditions) or 1% DOC (non-denaturing conditions). For immunoprecipitation, 500 μg of protein from these tissue lysates was incubated with their respective antibodies in 500 μl of RIPA buffer for 4 h at 4° C. Protein A-sepharose was added to the mixture and incubated for an additional 2 h. The complex was isolated by centrifugation and washed three times. Proteins eluted from the sepharose beads were subjected to SDS-PAGE and immunoblotting using their respective antibodies. For sequential re-probing of the same blots, the membranes were stripped of the initial primary and secondary antibodies and subjected to immunoblotting with another antibody. Blots were developed using enhanced chemiluminescence detection (Amersham). Band intensities were quantified using Scion Image PC software.
The serine/threonine kinase Akt/PKB has been implicated in protecting neurons from apoptotic cell death^17 and inhibition of this kinase activity has been suspected to be involved in NMDA receptor-mediated apoptosis^18. […]

transferrin receptor = assay: Transferrin receptor endocytosis assay; assay type: cell-based, rat; details: fluorescently-labeled transferrin 30 min; sucrose 0.4 M; R2-CT+Pep-1 one hour prior to and during
Procedure: Transferrin receptor endocytosis assay: To assess the effect of endocytosis inhibitors on transferrin receptor endocytosis, hippocampal neurons were incubated with […] Alexa-A488 conjugated transferrin (Molecular Probes) for 30 min at 37° C. in the presence or absence of endocytosis inhibitors. Internalized receptors were then viewed with a Leica fluorescence microscope.

NMDA receptor channel = target: T1, NMDA receptor channel (Rattus norvegicus, UniProt P35439); assay: NMDA-evoked [Ca2+]i responses (Fura-2); assay type: cell-based; details: NMDA 100 μM, 500 ms puffs; sucrose 400 mM in bath
T1 construct: we loaded hippocampal neurons with the intracellular Ca2+ dye, Fura-2; endogenous in cells; host or cells: primary rat hippocampal neurons (E18 Sprague Dawley)
Procedure: as §1

With N[C@@H](CCCP(=O)(O)O)C(=O)O [APV, reference compound] the NMDA-induced apoptosis (hippocampal neurons) was “fully blocked”.

“YGRKKRRQRRRAKEGANVAGIE [Tat-GluR2-3A, YGRKKRRQRRR-AKEGANVAGIE, reference compound]” was tested, and the “mean arterial blood pressure (MABP) versus saline” value (Sprague-Dawley rats) was “significantly lower mean arterial blood pressure”, the “Break Point measures for drug-reward” value (rats) was “no significant differences in the Break Point measures for drug-reward” and the “total number of responses for food reward” value (rats) was “no significant differences in total number of responses for food reward”.

With “GSTAKEGANVAG [GST-GluR23A, mutant counterpart with tyrosines replaced by alanines, control, reference compound]” the “tyrosine phosphorylation by recombinant Src kinase” value (pp60 c-Src) was “abolished” and the “insulin-induced EPSC depression” value [1] was “had no effect”.

OC[C@H]1O[C@@](CO)(O[C@H]2O[C@H](CO)[C@@H](O)[C@H](O)[C@H]2O)[C@@H](O)[C@@H]1O [sucrose] was tested, and the “NMDA-induced reduction in S473 phosphorylated Akt” value (Akt; hypertonic sucrose) was “largely prevented”, the “STS-induced reduction of Akt phosphorylation” value (Akt; sucrose treatment) was “had no effect on the reduction of Akt phosphorylation following STS treatment” and the NMDA-induced apoptosis (hippocampal neurons) was “dramatically reduced”. The transferrin receptor endocytosis (transferrin receptor) was “eliminated” and the “NMDA-evoked [Ca2+]i responses” value (NMDA receptor channel) was “did not significantly alter NMDA-evoked [Ca^2+]i responses”.

— US9486472B2, “Methods for modulating neuronal responses” (UNIVERSITY OF BRITISH COLUMBIA CANADA, priority 2003, dated 2016)
